Results as given in the NIST ThermoML archive (doi:10.1016/j.jct.2012.02.023).
± gives the expanded uncertainty stated by the source.

Conditions: Liquid; for speed of sound / mass density: 101.33 kPa; for speed of sound: Sing-around technique in a fixed-path interferometer; for mass density: Vibrating tube method; for vapor or sublimation pressure: Closed cell (Static) method

Row | speed of sound (293.15 K) [m/s] | mass density (293.15 K) [kg/m3] | speed of sound (303.15 K) [m/s] | mass density (303.15 K) [kg/m3] | speed of sound (313.15 K) [m/s] | mass density (313.15 K) [kg/m3] | speed of sound (323.15 K) [m/s] | mass density (323.15 K) [kg/m3] | vapor or sublimation pressure (303.15 K) [kPa] | vapor or sublimation pressure (323.15 K) [kPa] | Structure (SMILES)
1 | 1598.5 ± 1.6 | 1185.65 ± 0.38 | 1573.8 ± 1.6 | 1178.86 ± 0.38 | 1550.1 ± 1.6 | 1172.11 ± 0.37 | 1527 ± 1.6 | 1165.37 ± 0.37 | – | – | CCCC[n+]1cccc(C)c1.F[B-](F)(F)F [1-butyl-3-methylpyridinium tetrafluoroborate]
2 | 1611.8 ± 1.6 | 1185.92 ± 0.38 | 1586.7 ± 1.6 | 1179.12 ± 0.38 | 1562.8 ± 1.6 | 1172.12 ± 0.37 | 1539.3 ± 1.6 | 1165.52 ± 0.37 | – | – | CCCC[n+]1ccc(C)cc1.F[B-](F)(F)F [1-butyl-4-methylpyridinium tetrafluoroborate]
3 | 1160.1 ± 1.2 | 789.481 ± 0.15 | 1127.2 ± 1.2 | 781.302 ± 0.15 | 1093.6 ± 1.2 | 772.569 ± 0.15 | 1060.4 ± 1.2 | 763.647 ± 0.16 | 10.47 ± 0.045 | 29.57 ± 0.067 | CCO [ethanol]
4 | 1118.8 ± 1.2 | 791.243 ± 0.12 | 1086 ± 1.1 | 781.813 ± 0.13 | 1053.5 ± 1.1 | 772.287 ± 0.13 | 1021.5 ± 1.1 | 762.628 ± 0.14 | 21.93 ± 0.08 | 55.78 ± 0.12 | CO [methanol]
